Experimental data reported in publication PMC10866072, “Design, synthesis, molecular modelling and biological evaluation of novel 6-amino-5-cyano-2-thiopyrimidine derivatives as potent anticancer agents against leukemia and apoptotic inducers” (Journal of Enzyme Inhibition and Medicinal Chemistry, 2024).

Columns and labels:
SF-295 = format: cell-based; conditions: Homo sapiens, one dose 10^-5 M, 48 h
NCI-H226 = format: cell-based; conditions: Homo sapiens, one dose 10^-5 M, 48 h
EKVX = format: cell-based; conditions: Homo sapiens, one dose 10^-5 M, 48 h
[1] = system: full NCI 60 cell lines panel; conditions: for activity at 10 µM: Homo sapiens, 60 cell, 48 h, read-out: Mean % growth; for activity on all 60 cancer cell lines tested (in words): one dose
SF-268 = format: cell-based; conditions: Homo sapiens, one dose 10^-5 M, 48 h, read-out: % growth
MDA-MB-468 = format: cell-based; conditions: Homo sapiens, one dose 10^-5 M, 48 h
KM12 = format: cell-based; conditions: Homo sapiens, one dose 10^-5 M, 48 h
SW-620 = format: cell-based; conditions: Homo sapiens, one dose 10^-5 M, 48 h
K-562 = format: cell-based; conditions: Homo sapiens, K562, one dose 10^-5 M, 48 h
HCT-116 = format: cell-based; conditions: Homo sapiens, one dose 10^-5 M, 48 h, read-out: % growth
IGROV1 = format: cell-based; conditions: Homo sapiens, IGROV-1, one dose 10^-5 M, 48 h, read-out: % growth
OVCAR-5 = format: cell-based; conditions: Homo sapiens, one dose 10^-5 M, 48 h
OVCAR-8 = format: cell-based; conditions: Homo sapiens, one dose 10^-5 M, 48 h
NCI-H522 = format: cell-based; conditions: Homo sapiens, one dose 10^-5 M, 48 h
NCI/ADR-RES = format: cell-based; conditions: Homo sapiens, one dose 10^-5 M, 48 h
ACHN = format: cell-based; conditions: Homo sapiens, one dose 10^-5 M, 48 h
UACC-257 = format: cell-based; conditions: Homo sapiens, one dose 10^-5 M, 48 h
OVCAR-3 = format: cell-based; conditions: Homo sapiens, one dose 10^-5 M, 48 h
LOX IMVI = format: cell-based; conditions: Homo sapiens, one dose 10^-5 M, 48 h, read-out: % growth
NCI-H23 = format: cell-based; conditions: Homo sapiens, one dose 10^-5 M, 48 h, read-out: % growth
U251 = format: cell-based; conditions: Homo sapiens, U-251, one dose 10^-5 M, 48 h
PC-3 = format: cell-based; conditions: Homo sapiens, one dose 10^-5 M, 48 h
CCRF-CEM = format: cell-based; conditions: Homo sapiens, one dose 10^-5 M, 48 h
TK-10 = format: cell-based; conditions: Homo sapiens, one dose 10^-5 M, 48 h
UO-31 = format: cell-based; conditions: Homo sapiens, UO-31, 48 h, one dose 10^-5 M, 48 h
RPMI-8226 = format: cell-based; conditions: Homo sapiens, one dose 10^-5 M, 48 h
A498 = format: cell-based; conditions: Homo sapiens, one dose 10^-5 M, 48 h
SK-MEL-28 = format: cell-based; conditions: Homo sapiens, one dose 10^-5 M, 48 h
786-0 = format: cell-based; conditions: Homo sapiens, one dose 10^-5 M, 48 h
MDA-MB-435 = format: cell-based; conditions: Homo sapiens, one dose 10^-5 M, 48 h, read-out: % growth
OVCAR-4 = format: cell-based; conditions: Homo sapiens, one dose 10^-5 M, 48 h
HT29 = format: cell-based; conditions: Homo sapiens, HT-29, one dose 10^-5 M, 48 h
HOP-62 = format: cell-based; conditions: Homo sapiens, one dose 10^-5 M, 48 h
HS 578T = format: cell-based; conditions: Homo sapiens; one dose 10^-5 M, 48 h; HS 578T; read-out: % growth
A549/ATCC = format: cell-based; conditions: Homo sapiens, one dose 10^-5 M, 48 h
HCT-15 = format: cell-based; conditions: Homo sapiens, one dose 10^-5 M, 48 h, read-out: % growth
MCF7 = format: cell-based; conditions: Homo sapiens, one dose 10^-5 M, 48 h, read-out: % growth
SNB-19 = format: cell-based; conditions: Homo sapiens, one dose 10^-5 M, 48 h, read-out: % growth
MOLT-4 = format: cell-based; conditions: Homo sapiens, one dose 10^-5 M, 48 h, read-out: % growth
MDA-MB-231/ATCC = format: cell-based; conditions: Homo sapiens, one dose 10^-5 M, 48 h
SK-OV-3 = format: cell-based; conditions: Homo sapiens, one dose 10^-5 M, 48 h
T-47D = format: cell-based; conditions: Homo sapiens, T47D, one dose 10^-5 M, 48 h, read-out: % growth
SN12C = format: cell-based, human; conditions: Homo sapiens, one dose 10^-5 M, 48 h
SNB-75 = format: cell-based; conditions: Homo sapiens, one dose 10^-5 M, 48 h
SK-MEL-5 = format: cell-based; conditions: Homo sapiens, one dose 10^-5 M, 48 h, read-out: % growth
CAKI-1 = format: cell-based; conditions: Homo sapiens, CAKI-1, 48 h, one dose 10^-5 M, 48 h
HOP-92 = format: cell-based; conditions: Homo sapiens, one dose 10^-5 M, 48 h
HCC-2998 = format: cell-based; conditions: Homo sapiens, one dose 10^-5 M, 48 h
COLO 205 = format: cell-based; conditions: Homo sapiens, one dose 10^-5 M, 48 h
UACC-62 = format: cell-based; conditions: Homo sapiens, one dose 10^-5 M, 48 h
SR = format: cell-based; conditions: Homo sapiens, one dose 10^-5 M, 48 h
SF-539 = format: cell-based; conditions: Homo sapiens, one dose 10^-5 M, 48 h
MALME-3M = format: cell-based; conditions: Homo sapiens, one dose 10^-5 M, 48 h
M14 = format: cell-based; conditions: Homo sapiens, one dose 10^-5 M, 48 h
DU-145 = format: cell-based; conditions: Homo sapiens, one dose 10^-5 M, 48 h
HL-60(TB) = format: cell-based; conditions: Homo sapiens, one dose 10^-5 M, 48 h
BT-549 = format: cell-based; conditions: Homo sapiens, one dose 10^-5 M, 48 h
NCI-H460 = format: cell-based; conditions: Homo sapiens, one dose 10^-5 M, 48 h, read-out: % growth
SK-MEL-2 = format: cell-based; conditions: Homo sapiens, one dose 10^-5 M, 48 h

## CN(C)c1ccc(-c2nc(S)nc(N)c2C(=N)NN=Cc2ccc(Cl)cc2)cc1 [Compound 4b, 4-amino-N'-[(4-chlorophenyl)methylene]-6-[4-(dimethylamino)phenyl]-2-mercapto pyrimidine-5-carboximidohydrazide]
SF-295
  % cell growth at 10 µM: 96.8%
NCI-H226
  % growth at 10 µM: 99.8%
EKVX
  % cell growth at 10 µM: 91.8%
[1]
  activity at 10 µM: 98.2%
  activity on all 60 cancer cell lines tested (in words): weak activity
SF-268
  activity at 10 µM: 97.5%
MDA-MB-468
  percent cell growth at 10 µM: 107%
KM12
  % growth at 10 µM: 92.9%
SW-620
  % growth at 10 µM: 102%
K-562
  % growth at 10 µM: 98.5%
HCT-116
  activity at 10 µM: 100%
IGROV1
  activity at 10 µM: 102%
OVCAR-5
  percent cell growth at 10 µM: 109%
OVCAR-8
  % growth of cells at 10 µM: 106%
NCI-H522
  % growth at 10 µM: 92.4%
NCI/ADR-RES
  cell growth percent at 10 µM: 104%
ACHN
  % growth at 10 µM: 102%
UACC-257
  percent cell growth at 10 µM: 99.7%
OVCAR-3
  % growth at 10 µM: 102%
LOX IMVI
  activity at 10 µM: 103%
NCI-H23
  activity at 10 µM: 101%
U251
  % growth at 10 µM: 106%
PC-3
  percent cell growth at 10 µM: 91.5%
CCRF-CEM
  % cell growth at 10 µM: 76.3%
TK-10
  % cell growth at 10 µM: 90%
UO-31
  % cell growth at 10 µM: 65.4%
RPMI-8226
  % growth at 10 µM: 79.1%
A498
  % growth at 10 µM: 92.1%
SK-MEL-28
  % cell growth at 10 µM: 103%
786-0
  % growth at 10 µM: 86.7%
MDA-MB-435
  activity at 10 µM: 96.2%
OVCAR-4
  % growth at 10 µM: 95.5%
HT29
  % growth at 10 µM: 92.7%
HOP-62
  % growth at 10 µM: 109%
HS 578T
  activity at 10 µM: 97.5%
A549/ATCC
  % growth at 10 µM: 98.4%
HCT-15
  activity at 10 µM: 92.3%
MCF7
  activity at 10 µM: 90.9%
SNB-19
  activity at 10 µM: 98.8%
MOLT-4
  activity at 10 µM: 101%
MDA-MB-231/ATCC
  % growth at 10 µM: 102%
SK-OV-3
  % growth at 10 µM: 120%
T-47D
  activity at 10 µM: 88.3%
SN12C
  % growth at 10 µM: 88.5%
SNB-75
  % growth at 10 µM: 95.2%
SK-MEL-5
  activity at 10 µM: 97.6%
CAKI-1
  % growth at 10 µM: 102%
HOP-92
  % growth at 10 µM: 118%
HCC-2998
  % growth at 10 µM: 94.3%
COLO 205
  % growth at 10 µM: 137%
UACC-62
  % growth at 10 µM: 94%
SR
  percent cell growth at 10 µM: 98.7%
SF-539
  % growth at 10 µM: 98%
MALME-3M
  % growth at 10 µM: 98.7%
M14
  % growth at 10 µM: 96.9%
DU-145
  % growth at 10 µM: 100%
HL-60(TB)
  % growth at 10 µM: 91.8%
BT-549
  % cell growth at 10 µM: 95.7%
NCI-H460
  activity at 10 µM: 99.8%
SK-MEL-2
  % growth at 10 µM: 107%

## COc1ccc(/C=N\NC(=N)c2c(N)nc(S)nc2-c2ccc(N(C)C)cc2)cc1 [Compound 4d, 4-amino-N'-[(1Z)-(4-methoxyphenyl)methylene]-6-[4-(dimethylamino)phenyl]-2-mercapto pyrimidine-5-carboximidohydrazide]
SF-295
  % cell growth at 10 µM: 104%
NCI-H226
  % growth at 10 µM: 103%
EKVX
  % cell growth at 10 µM: 99%
[1]
  activity at 10 µM: 101%
  activity on all 60 cancer cell lines tested (in words): weak activity
SF-268
  activity at 10 µM: 97%
MDA-MB-468
  percent cell growth at 10 µM: 114%
KM12
  % growth at 10 µM: 93.2%
SW-620
  % growth at 10 µM: 103%
K-562
  % growth at 10 µM: 101%
HCT-116
  activity at 10 µM: 108%
IGROV1
  activity at 10 µM: 104%
OVCAR-5
  percent cell growth at 10 µM: 103%
OVCAR-8
  % growth of cells at 10 µM: 104%
NCI-H522
  % growth at 10 µM: 93.3%
NCI/ADR-RES
  cell growth percent at 10 µM: 107%
ACHN
  % growth at 10 µM: 103%
UACC-257
  percent cell growth at 10 µM: 106%
OVCAR-3
  % growth at 10 µM: 105%
LOX IMVI
  activity at 10 µM: 101%
NCI-H23
  activity at 10 µM: 103%
U251
  % growth at 10 µM: 106%
PC-3
  percent cell growth at 10 µM: 88.5%
CCRF-CEM
  % cell growth at 10 µM: 78.9%
TK-10
  % cell growth at 10 µM: 103%
UO-31
  % cell growth at 10 µM: 72%
RPMI-8226
  % growth at 10 µM: 86.5%
A498
  % growth at 10 µM: 119%
SK-MEL-28
  % cell growth at 10 µM: 105%
786-0
  % growth at 10 µM: 98.3%
MDA-MB-435
  activity at 10 µM: 96.7%
OVCAR-4
  % growth at 10 µM: 96.8%
HT29
  % growth at 10 µM: 100%
HOP-62
  % growth at 10 µM: 106%
HS 578T
  activity at 10 µM: 112%
A549/ATCC
  % growth at 10 µM: 103%
HCT-15
  activity at 10 µM: 98.2%
MCF7
  activity at 10 µM: 95.2%
SNB-19
  activity at 10 µM: 101%
MOLT-4
  activity at 10 µM: 101%
MDA-MB-231/ATCC
  % growth at 10 µM: 103%
SK-OV-3
  % growth at 10 µM: 110%
T-47D
  activity at 10 µM: 98.7%
SN12C
  % growth at 10 µM: 100%
SNB-75
  % growth at 10 µM: 101%
SK-MEL-5
  activity at 10 µM: 102%
CAKI-1
  % growth at 10 µM: 97.5%
HOP-92
  % growth at 10 µM: 109%
HCC-2998
  % growth at 10 µM: 108%
COLO 205
  % growth at 10 µM: 118%
UACC-62
  % growth at 10 µM: 94.3%
SR
  percent cell growth at 10 µM: 102%
SF-539
  % growth at 10 µM: 108%
MALME-3M
  % growth at 10 µM: 98.4%
M14
  % growth at 10 µM: 96.1%
DU-145
  % growth at 10 µM: 106%
HL-60(TB)
  % growth at 10 µM: 93.8%
BT-549
  % cell growth at 10 µM: 102%
NCI-H460
  activity at 10 µM: 106%
SK-MEL-2
  % growth at 10 µM: 109%
